Source: paper PMC6915728 (Nature Communications, 2019)

Key:
[1] = test system: E. coli BW25113 overexpression strains (ASKA plasmids); test: Minimum inhibitory concentration (MIC), serial broth dilution, single-gene overexpression strains vs empty-vector control; format: cell-based, Escherichia coli; conditions: for Relative MIC: broth dilution, MS medium, 100 µM IPTG, 30 °C, 20-24 h, OD600, 3 replicates
Method in brief: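 E. coli overexpression strains grown in MS medium with chloramphenicol, induced with 100 µM IPTG for 1 h at 30 °C, then about half-million cells inoculated into 12-step AMP dilutions (typically 1.2-fold steps). OD600 read after 20–24 h at 30 °C with shaking; triplicate strains compared with empty-vector control.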

[2] = test system: AMP-evolved E. coli lines; test: Cross-resistance / collateral sensitivity: relative MIC change of 38 laboratory-evolved AMP-resistant lines vs parental strain; format: cell-based, Escherichia coli; conditions: measured here
From the text: Here, we extended this dataset by measuring susceptibility changes of the same evolved lines to four additional AMPs using identical protocols to represent AMPs from all four clusters (Supplementary Fig. 15a, see also Methods). Overall, the resulting dataset of susceptibility profiles provides a comprehensive map of cross-resistance and collateral sensitivity between AMPs representing various modes of action.
To characterize the cross-resistance of the 38 E. coli lineages we obtained relative MIC changes that are, the MIC values of the evolved lines compared to these of the parental strain, from two data sources. First, we used already measured relative MIC changes from Spohn et al. Supplementary data 4[20]. […] Second, we extended this dataset by measuring the relative MIC changes of the same evolved lines to four additional AMPs using identical protocol. […] In this way, AMPs from each cluster were represented in the dataset.
Supplementary Figure 15. […] Relative change in MIC was determined for each evolved line by comparing its MIC to the ancestral cell line (control). […] CAP18-adaped lines were not included in the analysis because CAP18 is known as a membrane-targeting AMP in the literature. c, Cross-resistance interactions are enriched between membrane-targeting AMPs that are in the same chemical-genetic clusters (i.e. AMP pairs within C1 and within C2 clusters) (Significant difference: ** P = 0.0082 from two-sided Fisher’s exact test, n = 61 and 62 for within cluster and between clusters, respectively). […] Source data are provided as a Source Data file.

GIGKFLKKAKKFGKAFVKILKK [PEX, Pexiganan, synthetic Magainin derivative; disrupts cell membrane; cluster C2]
Average relative change in MIC ([1]; mlaD overexpression strain relative to control (wild-type+empty vector), 3 replicates each, from optical density values of serial dilution plates, AMP in µg ml-1): 1.71
Relative MIC ([1]; overexpression strain gadW, MIC of overexpression strain / MIC of empty-plasmid control): 0.7
Relative MIC ([1]; overexpression strain hyfA, MIC of overexpression strain / MIC of empty-plasmid control): 0.7
Relative MIC ([1]; overexpression strain lptB, MIC of overexpression strain / MIC of empty-plasmid control): 1.3
Relative MIC ([1]; overexpression strain mlaC, MIC of overexpression strain / MIC of empty-plasmid control): 1.85
Relative MIC ([1]; overexpression strain mlaD, MIC of the overexpression strain / MIC of the control strain (wild-type carrying the empty plasmid)): 1.85
Relative MIC ([1]; overexpression strain murA, MIC of overexpression strain / MIC of empty-plasmid control): 1.44
Relative MIC ([1]; overexpression strain mzrA, MIC of overexpression strain / MIC of empty-plasmid control): 1
Relative MIC ([1]; overexpression strain narY, MIC of overexpression strain / MIC of empty-plasmid control): 0.8
Relative MIC ([1]; overexpression strain rpoH, MIC of overexpression strain / MIC of empty-plasmid control): 1.44
Relative change in MIC (MIC of the AMP-adpated line / MIC of the ancestral strain) ([2]; AMP-adapted line BAC5_3): 1
Relative change in MIC (MIC of the AMP-adpated line / MIC of the ancestral strain) ([2]; AMP-adapted line BAC5_5): 1
Relative change in MIC (MIC of the AMP-adpated line / MIC of the ancestral strain) ([2]; AMP-adapted line BAC5_7): 1.1
Relative change in MIC (MIC of the AMP-adpated line / MIC of the ancestral strain) ([2]; AMP-adapted line BAC5_10): 1.1
Relative change in MIC (MIC of the AMP-adpated line / MIC of the ancestral strain) ([2]; AMP-adapted line CAP18_2): 3.036
Relative change in MIC (MIC of the AMP-adpated line / MIC of the ancestral strain) ([2]; AMP-adapted line CAP18_5): >3.6
Relative change in MIC (MIC of the AMP-adpated line / MIC of the ancestral strain) ([2]; AMP-adapted line CAP18_6): 1.964
Relative change in MIC (MIC of the AMP-adpated line / MIC of the ancestral strain) ([2]; AMP-adapted line CAP18_8): 2.986
Relative change in MIC (MIC of the AMP-adpated line / MIC of the ancestral strain) ([2]; AMP-adapted line CAP18_10): 2.488
Relative change in MIC (MIC of the AMP-adpated line / MIC of the ancestral strain) ([2]; AMP-adapted line HBD3_3): 3.648
Relative change in MIC (MIC of the AMP-adpated line / MIC of the ancestral strain) ([2]; AMP-adapted line HBD3_6): 2.089
Relative change in MIC (MIC of the AMP-adpated line / MIC of the ancestral strain) ([2]; AMP-adapted line HBD3_8): 3.578
Relative change in MIC (MIC of the AMP-adpated line / MIC of the ancestral strain) ([2]; AMP-adapted line HBD3_10): 2.72
Relative change in MIC (MIC of the AMP-adpated line / MIC of the ancestral strain) ([2]; AMP-adapted line LL37_1): 1.584
Relative change in MIC (MIC of the AMP-adpated line / MIC of the ancestral strain) ([2]; AMP-adapted line LL37_3): 1.32
Relative change in MIC (MIC of the AMP-adpated line / MIC of the ancestral strain) ([2]; AMP-adapted line LL37_6): 1.22
Relative change in MIC (MIC of the AMP-adpated line / MIC of the ancestral strain) ([2]; AMP-adapted line LL37_7): 2.986
Relative change in MIC (MIC of the AMP-adpated line / MIC of the ancestral strain) ([2]; AMP-adapted line LL37_10): 2.093
Relative change in MIC (MIC of the AMP-adpated line / MIC of the ancestral strain) ([2]; AMP-adapted line PR39_1): 1.464
Relative change in MIC (MIC of the AMP-adpated line / MIC of the ancestral strain) ([2]; AMP-adapted line PR39_2): 1.1
Relative change in MIC (MIC of the AMP-adpated line / MIC of the ancestral strain) ([2]; AMP-adapted line PR39_5): 1.1
Relative change in MIC (MIC of the AMP-adpated line / MIC of the ancestral strain) ([2]; AMP-adapted line PR39_7): 1.1
Relative change in MIC (MIC of the AMP-adpated line / MIC of the ancestral strain) ([2]; AMP-adapted line PR39_10): 1
Relative change in MIC (MIC of the AMP-adpated line / MIC of the ancestral strain) ([2]; AMP-adapted line PROA_2): 1.1
Relative change in MIC (MIC of the AMP-adpated line / MIC of the ancestral strain) ([2]; AMP-adapted line PROA_3): 1.1
Relative change in MIC (MIC of the AMP-adpated line / MIC of the ancestral strain) ([2]; AMP-adapted line PROA_7): 0.915
Relative change in MIC (MIC of the AMP-adpated line / MIC of the ancestral strain) ([2]; AMP-adapted line PROA_8): 1.2
Relative change in MIC (MIC of the AMP-adpated line / MIC of the ancestral strain) ([2]; AMP-adapted line PROA_9): 1
Relative change in MIC (MIC of the AMP-adpated line / MIC of the ancestral strain) ([2]; AMP-adapted line PXB_2): 1.32
Relative change in MIC (MIC of the AMP-adpated line / MIC of the ancestral strain) ([2]; AMP-adapted line PXB_5): 1.844
Relative change in MIC (MIC of the AMP-adpated line / MIC of the ancestral strain) ([2]; AMP-adapted line PXB_6): 1.6368
Relative change in MIC (MIC of the AMP-adpated line / MIC of the ancestral strain) ([2]; AMP-adapted line PXB_8): 1.844
Relative change in MIC (MIC of the AMP-adpated line / MIC of the ancestral strain) ([2]; AMP-adapted line PXB_10): >3.6
